In patent US5599548A, “Skin care compositions containing fatty acid amides and retinol or retinyl ester” (priority 1995, dated 1997):
Entries after “also recorded” stand apart in the source; their conditions may differ. Like-named read-outs stand apart in the source and are kept apart here.

What was measured:
[1] = tested on: TGase I (keratinocyte transglutaminase level); assay: Transglutaminase (TGase I) ELISA assay (keratinocyte differentiation); format: cell-based, human
Method in brief: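 Neonatal foreskin keratinocytes plated at 3,000 cells/well, treated with compounds after 4 days for 72 h, then freeze-fractured. TGase I measured by ELISA (mouse anti-human TGase primary, peroxidase anti-mouse secondary, o-phenylene diamine substrate, A492). Secondary-only background was subtracted; values are means ±s.d. of replicates.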

Human keratinocytes = assay: 3H-Thymidine incorporation (keratinocyte proliferation); format: cell-based; details: for activity at 0.001 µM / activity at 0.01 µM / activity at 1 µM / activity at 0.1 µM: Homo sapiens, Keratinocyte, 24 h; for activity at 1 µM: 10^-6 M; for activity at 0.1 µM: 10^-7 M
Method in brief: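 Neonatal foreskin keratinocytes (second passage, serum-free medium) were plated at 40,000 cells/well and grown to 60–70% confluence. Compounds were added in triplicate 24 h after a medium change, with 1 μCi 3H-thymidine 4 h later, followed by a further 24 h incubation. TCA-precipitated label was counted by liquid scintillation and expressed as DPM/μg protein.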

[2] = Table 7A, n = 9, read-out: mean Thymidine incorp/μg protein ± s.d
[3] = Table 7A, n = 9, read-out: thymidine incorporation, % control

For `CCCCC/C=C\C/C=C\CCCCCCCC(=O)N(CCO)CCO` [linoleoyl-DEA, Linoleoyl-Diethanolamide], the activity at 1 µM ([1]; Homo sapiens, Keratinocyte, 72 h, Table 2B, RA, ROH 2.5 × 10^-7 M, linoleoyl-DEA 10^-6 M, alone or combined, 72 h, n = 9, read-out: TGase (TG1) level, % control) was 59%, the activity at 1 µM ([1]; Homo sapiens, Keratinocyte, Table 3B, RA, RP 2.5 × 10^-7 M, linoleoyl-DEA 10^-6 M, alone or combined, n = 3, read-out: TGase (TG1) level, % control) was 85% and the activity at 1 µM ([1]; Homo sapiens, Keratinocyte, Table 8A, 10^-6 M, n = 3, read-out: TGase, % control) was 87%. The activity at 0.1 µM ([1]; Homo sapiens, Keratinocyte, Table 8A, 10^-7 M, n = 3, read-out: TGase, % control) was 80%, the activity at 0.01 µM ([1]; Homo sapiens, Keratinocyte, Table 8A, 10^-8 M, n = 3, read-out: TGase, % control) was 86% and the activity at 0.001 µM ([1]; Homo sapiens, Keratinocyte, Table 8A, 10^-9 M, n = 3, read-out: TGase, % control) was 85%. The activity at 1 µM ([1]; Homo sapiens, Keratinocyte, Table 8B, 10^-6 M, n = 3, read-out: TGase, % control) was 37%, the activity at 0.0001 µM ([1]; Homo sapiens, Keratinocyte, Table 8B, 10^-10 M, n = 3, read-out: TGase, % control) was 66% and the “mean TGase ± s.d” value ([1]; Table 2B, RA, ROH 2.5 × 10^-7 M, linoleoyl-DEA 10^-6 M, alone or combined, 72 h, normalized to ethanol control, n = 9) was 0.594 ± 0.773. The “mean TGase ± s.d” value ([1]; Table 3B, RA, RP 2.5 × 10^-7 M, linoleoyl-DEA 10^-6 M, alone or combined, n = 3) was 0.186 ± 0.058, the “mean TGase ± s.d” value ([1]; Table 8A, 10^-6 M, n = 3) was 0.186 ± 0.058 and the “mean TGase ± s.d” value ([1]; Table 8A, 10^-7 M, n = 3) was 0.175 ± 0.059. The “mean TGase ± s.d” value ([1]; Table 8A, 10^-8 M, n = 3) was 0.188 ± 0.046, the “mean TGase ± s.d” value ([1]; Table 8A, 10^-9 M, n = 3) was 0.185 ± 0.031 and the “mean TGase ± s.d” value ([1]; Table 8B, 10^-6 M, n = 3) was 0.037 ± 0.008. The “mean TGase ± s.d” value ([1]; Table 8B, 10^-10 M, n = 3) was 0.080 ± 0.030, the activity at 0.001 µM (Human keratinocytes; Table 2A, RA, ROH 2.5 × 10^-8 M, linoleoyl-DEA 10^-9 M, alone or combined, n = 9, read-out: thymidine incorporation, % control) was 105% and the activity at 0.001 µM (Human keratinocytes; Table 2A, RA, ROH 2.5 × 10^-8 M, linoleoyl-DEA 10^-9 M, alone or combined, normalized to ethanol control, n = 9, read-out: mean Thymidine incorp./μg protein ± s.d) was 105 ± 15.8%. It also gave an activity at 0.01 µM (Human keratinocytes; Table 3A, RA 2.5 × 10^-9 M, RP 2.5 × 10^-7 M, linoleoyl-DEA 10^-8 M, alone or combined, n = 3, read-out: thymidine incorporation, % control) of 99%, an activity at 1 µM (Human keratinocytes; [2]) of 60.7 ± 8% and an activity at 1 µM (Human keratinocytes; [3]) of 61%. The activity at 0.1 µM (Human keratinocytes; [2]) was 101 ± 7.5%, the activity at 0.1 µM (Human keratinocytes; [3]) was 101% and the activity at 0.01 µM (Human keratinocytes; Table 7A, 10^-8 M, n = 9, read-out: mean Thymidine incorp/μg protein ± s.d) was 114 ± 20.6%. It also gave an activity at 0.01 µM (Human keratinocytes; Table 7A, 10^-8 M, n = 9, read-out: thymidine incorporation, % control) of 114%, an activity at 0.001 µM (Human keratinocytes; Table 7A, 10^-9 M, n = 9, read-out: mean Thymidine incorp/μg protein ± s.d) of 105 ± 15.8% and an activity at 0.001 µM (Human keratinocytes; Table 7A, 10^-9 M, n = 9, read-out: thymidine incorporation, % control) of 105%. For the same compound, the “mean Thymidine incorp./μg protein ± s.d” value (Human keratinocytes; Table 3A, RA 2.5 × 10^-9 M, RP 2.5 × 10^-7 M, linoleoyl-DEA 10^-8 M, alone or combined, n = 3) was 1692 ± 48 DPM/μg protein and the “effect on keratinocyte proliferation, in words” value (Human keratinocytes; concentrations as in the respective Example) was “minor, non-significant stimulatory effect on keratinocyte proliferation; also recorded: no effect on keratinocyte proliferation”.
